Organism: Rattus norvegicus
Assay: Open TG-GATES - Regimen: Single
Type: toxicity, organism-based, Sprague-Dawley
Set-up: regimen Single, gender Male, age 6 weeks
Conditions: in vivo, po, route gavage; for Bas / Eos / Fbg / Hb / Ht / Lym / MCHC / MCV / Mono / Neu / PT / Plat / RBC / Ret / WBC / APTT: tissue Blood; for KIDNEY_L / KIDNEY_R / KIDNEY_TOTAL: tissue Kidney; for LIVER: tissue Liver
[1] = 300 mg/kg, 3 h, dose level Middle
[2] = 300 mg/kg, 3 h, tissue Plasma, dose level Middle
[3] = 300 mg/kg, 6 h, dose level Middle
[4] = 300 mg/kg, 6 h, tissue Plasma, dose level Middle
[5] = 300 mg/kg, 9 h, dose level Middle
[6] = 300 mg/kg, 9 h, tissue Plasma, dose level Middle
[7] = 300 mg/kg, 24 h, dose level Middle
[8] = 300 mg/kg, 24 h, tissue Plasma, dose level Middle

`CN(C)C(=N)N=C(N)N` [METFORMIN] was tested, and the Bas [1] was 0%, the Eos [1] was 1% and the Fbg [1] was 256.8 mg/dL. The Hb [1] was 12.8 g/dL, the Ht [1] was 39.1% and the Lym [1] was 72.6%. The MCHC [1] was 32.9%, the MCV [1] was 64.2 fL and the Mono [1] was 2.8%. The Neu [1] was 23.2%, the PT [1] was 12.3 s and the Plat [1] was 125.2 x10_4/uL. For the same molecule, the RBC [1] was 612.2 x10_4/ul, the Ret [1] was 10.1% and the WBC [1] was 96 x10_2/uL. It also gave a KIDNEY_L [1] of 0.9 g, a KIDNEY_R [1] of 0.9 g and a KIDNEY_TOTAL [1] of 1.7 g. For the same molecule, the LIVER [1] was 8.1 g, the ALP [2] was 1196.4 IU/L and the ALT [2] was 58 IU/L. It also gave an AST [2] of 77.2 IU/L, a BUN [2] of 8.8 mg/dL and a CRE [2] of 0.2 mg/dL. The Ca [2] was 11.1 mg/dL, the Cl [2] was 106.2 meq/L and the DBIL [2] was 0.01 mg/dL. The GLC [2] was 156.2 mg/dL, the IP [2] was 9 mg/dL and the K [2] was 3.8 meq/L. The LDH [2] was 65 IU/L, the Na [2] was 140.6 meq/L and the PL [2] was 132.2 mg/dL. The RALB [2] was 2.5 g/dL, the TBIL [2] was 0.038 mg/dL and the TG [2] was 46.2 mg/dL. The TP [2] was 5.2 g/dL, the gamma-GTP [2] was 1.2 IU/L and the TERMINAL_BW [3] was 200 g. It also gave an APTT [3] of 16.3 s, a Bas [3] of 0.2% and an Eos [3] of 1%. It also gave a Fbg [3] of 254 mg/dL, a Hb [3] of 12.8 g/dL and a Ht [3] of 38.1%. The Lym [3] was 75.6%, the MCHC [3] was 33.6% and the MCV [3] was 63 fL. It also gave a Mono [3] of 3%, a Neu [3] of 20.2% and a PT [3] of 12.5 s. It also gave a Plat [3] of 113.5 x10_4/uL, an RBC [3] of 604.4 x10_4/ul and a Ret [3] of 9.6%. It also gave a WBC [3] of 95.4 x10_2/uL, a KIDNEY_L [3] of 0.9 g and a KIDNEY_R [3] of 0.9 g. It also gave a KIDNEY_TOTAL [3] of 1.7 g, an LIVER [3] of 7.3 g and an ALP [4] of 1116.6 IU/L. For the same molecule, the ALT [4] was 85 IU/L, the AST [4] was 85.6 IU/L and the BUN [4] was 8.4 mg/dL. For the same molecule, the CRE [4] was 0.2 mg/dL, the Ca [4] was 11 mg/dL and the Cl [4] was 105.6 meq/L. For the same molecule, the DBIL [4] was 0.004 mg/dL, the GLC [4] was 153.4 mg/dL and the IP [4] was 10.3 mg/dL. It also gave a K [4] of 4.1 meq/L, an LDH [4] of 51.8 IU/L and a Na [4] of 140 meq/L. It also gave a PL [4] of 126 mg/dL, an RALB [4] of 2.5 g/dL and a TBIL [4] of 0.04 mg/dL. For the same molecule, the TG [4] was 28.2 mg/dL, the TP [4] was 5.1 g/dL and the gamma-GTP [4] was 1 IU/L. For the same molecule, the TERMINAL_BW [5] was 199.7 g, the APTT [5] was 15.9 s and the Bas [5] was 0%. It also gave an Eos [5] of 1%, a Fbg [5] of 250.2 mg/dL and a Hb [5] of 12.8 g/dL. It also gave a Ht [5] of 38.2%, a Lym [5] of 75% and an MCHC [5] of 33.6%. It also gave an MCV [5] of 64.1 fL, a Mono [5] of 2.6% and a Neu [5] of 20.4%. It also gave a PT [5] of 12.4 s, a Plat [5] of 111.7 x10_4/uL and an RBC [5] of 595.8 x10_4/ul. For the same molecule, the Ret [5] was 10.1%, the WBC [5] was 82.7 x10_2/uL and the KIDNEY_L [5] was 0.8 g. It also gave a KIDNEY_R [5] of 0.9 g, a KIDNEY_TOTAL [5] of 1.7 g and an LIVER [5] of 6.8 g. For the same molecule, the ALP [6] was 1220.2 IU/L, the ALT [6] was 61.2 IU/L and the AST [6] was 75.6 IU/L. For the same molecule, the BUN [6] was 9 mg/dL, the CRE [6] was 0.1 mg/dL and the Ca [6] was 10.7 mg/dL. For the same molecule, the Cl [6] was 106.6 meq/L, the DBIL [6] was 0.008 mg/dL and the GLC [6] was 162.6 mg/dL. For the same molecule, the IP [6] was 10.2 mg/dL, the K [6] was 4 meq/L and the LDH [6] was 52.2 IU/L. The Na [6] was 140.8 meq/L, the PL [6] was 126.6 mg/dL and the RALB [6] was 2.5 g/dL. The TBIL [6] was 0.042 mg/dL, the TG [6] was 26.2 mg/dL and the TP [6] was 5 g/dL. The gamma-GTP [6] was 1.4 IU/L, the TERMINAL_BW [7] was 208.8 g and the APTT [7] was 16.1 s. It also gave a Bas [7] of 0%, an Eos [7] of 0.8% and a Fbg [7] of 235.6 mg/dL. The Hb [7] was 13.2 g/dL, the Ht [7] was 39.1% and the Lym [7] was 75.2%. It also gave an MCHC [7] of 33.8%, an MCV [7] of 63.3 fL and a Mono [7] of 3%. For the same molecule, the Neu [7] was 20.6%, the PT [7] was 12.5 s and the Plat [7] was 112.7 x10_4/uL. For the same molecule, the RBC [7] was 617.8 x10_4/ul, the Ret [7] was 9.3% and the WBC [7] was 73.1 x10_2/uL. It also gave a KIDNEY_L [7] of 0.9 g, a KIDNEY_R [7] of 0.9 g and a KIDNEY_TOTAL [7] of 1.8 g. It also gave an LIVER [7] of 9.7 g, an ALP [8] of 1591.2 IU/L and an ALT [8] of 52.4 IU/L. For the same molecule, the AST [8] was 77.8 IU/L, the BUN [8] was 15.2 mg/dL and the CRE [8] was 0.2 mg/dL. For the same molecule, the Ca [8] was 11.2 mg/dL, the Cl [8] was 104.6 meq/L and the DBIL [8] was 0.014 mg/dL. It also gave a GLC [8] of 178 mg/dL, an IP [8] of 8.9 mg/dL and a K [8] of 4.1 meq/L. It also gave an LDH [8] of 80 IU/L, a Na [8] of 141.4 meq/L and a PL [8] of 146.6 mg/dL. It also gave an RALB [8] of 2.5 g/dL, a TBIL [8] of 0.03 mg/dL and a TC [8] of 83.4 mg/dL. It also gave a TG [8] of 87 mg/dL, a TP [8] of 5.4 g/dL and a gamma-GTP [8] of 1 IU/L. The TERMINAL_BW (1000 mg/kg, 3 h, dose level High) was 201 g.

Reference: ChEMBL document CHEMBL3885861, “Open TG-GATES”
